Laboratory results from patent US6387938B1, “Benzimidazole derivatives” (Mochida Pharmaceutical Co., Ltd., priority 1996, dated 2002).

What was measured:
[1] = system: intraperitoneal eosinophilia; assay: Action on intraperitoneal eosinophilia model mice; assay type: in vivo, BALB/c male mice; settings: BALB/c mice sensitized with swine roundworm extract; oral once a day, 10 times; dose 10 mg/kg/day
Procedure: Using five animals per group of BALB/c male mice (about 25 g in body weight), 0.11 mL of physiological saline containing 0.1 mg of swine roundworm extract was administered into the peritoneal cavity of each mouse to sensitize. The same treatment was repeated 7 days after the administration and, 3 days thereafter, each animal was sacrificed by phlebotomy, 3 mL of physiological saline containing 1% dipotassium ethylenediaminetetraacetate (EDTA) was administered by intraperitoneal injection and its abdominal region was massaged for about 30 seconds. […] A portion of the cell suspension was daubed on a slide glass using a spinner to carry out Diff-Quik staining, and then total leukocytes and eosinophils were counted to calculate the ratio of eosinophils in the total leukocytes. The number of total leukocytes in the cell suspension was measured using an automatic blood cell counter. The number of eosinophils in the cell suspension was calculated by multiplying the ratio of eosinophils in the total leukocytes by the number of total leukocytes. […] The dose of each compound to be tested and the intraperitoneal eosinophilia inhibition rate calculated by the following formula are shown in Table 1. […]

[2] = Hydrolysis of the ester bond in the rat; assay type: in vivo
BALB/c male mice = assay: Toxicity test in mice, repeated oral dosing; assay type: in vivo
SD female rats = assay: Toxicity test in rats, 14 days oral dosing; assay type: in vivo; settings: 0.5% HPMC suspension, 300 mg/kg/day for 14 days
Procedure: SD female rats were orally treated with the compounds of Inventive Examples 54 and 55 suspended in 0.5% aqueous solution of HPMC at a dose of 300 mg/kg/day for 14 days.

[3] = system: IFN-γ production of the spleen cell; assay: Action of IFN-γ production enhancement in tumor-bearing mouse; assay type: in vivo; settings: B16F10 tumor-bearing C57BL/6 mouse, oral day 7 to day 21, spleen cells cultivated 24 hours with no stimulation, EIA, N = 7
Procedure: B16F10 cells cultivated in DMEM (Dulbecco's medium) supplemented with 10% FCS (fetal calf serum) were treated with trypsin, washed with PBS (phosphate buffered saline, pH 7.4), and adjusted in PBS to 1×10^7 cells/ml. The cells were subcutaneously injected in the abdomen of male C57BL/6 mouse (7 week old; body weight, about 23 g) at a dose of 0.1 ml/mouse. The day of tumor inoculation was designated day 0, and the tumor diameter was measured at day 7 with a vernier caliper. The tumor volume was calculated in terms of (minor diameter)^2×(major diameter), and the mice were grouped by using this value and the body weight for the indexes. […] The test compound was orally administered from day 7 to day 21. The solvent used was 0.5% HPMC (Hydroxy propyl methyl cellurose), and the control group was administered only with the solvent. At day 22, the mice were decapitated and the spleens were removed. After weighing the organs, the spleen was homogenized with a glass homogenizer, adjusted to 5×10^6 cells/ml, and cultivated in S-Clone SF-B medium (Sanko Pure Chemicals). The culture supernatant was collected after 24 hours, and […] at −80° C. The supernatant was measured for its IFN-γ concentration (pg/mL) by EIA (Enzyme Immunoassay). The measurement was conducted with an assay kit of ENDOGEN.

[4] = 0.5% HPMC suspension, 100 mg/kg/day for 4 days
[5] = 5% acacia suspension, 100 mg/kg/day for 7 days, observed for 3 days after administration

Row | SMILES | Abnormality in body weight and general symptoms (BALB/c male mice; [4]) | Mortality (BALB/c male mice; [4]) | Abnormality in body weight and general symptoms (BALB/c male mice; [5]) | Mortality (BALB/c male mice; [5]) | other results
1 | CCOC(=O)CC(=O)c1cccc2nc(CCc3ccccc3)[nH]c12 [compound 3] |  |  |  |  | Intraperitoneal eosinophilia inhibition rate (%) [1]: 67%
2 | CCOC(=O)CC(O)c1cccc2nc(CCc3ccccc3)[nH]c12 (stereo not drawn) [compound 55] | no abnormality | No mortal case |  |  | Ester bond hydrolysis to generate carboxyl group [2]: hydrolyzed; Relative liver weight (SD female rats): no such increase
3 | CCOC(=O)CC(O)c1cccc2nc(CCc3ccccc3)[nH]c12 (stereo not drawn) [compound 6] | no abnormality | No mortal case |  |  | IFN-γ concentration ([3]; dose 10 mg/kg/day): 125 pg/mL; IFN-γ concentration ([3]; dose 30 mg/kg/day): 194 pg/mL; IFN-γ concentration ([3]; dose 100 mg/kg/day): 263 pg/mL
4 | O=C(O)CC(=O)c1cccc2nc(CCc3ccccc3)[nH]c12 [compound 1] |  |  | no abnormality | no mortal case | 
5 | CCOC(=O)CC(O)c1cccc2nc(CCc3ccccc3)[nH]c12 (stereo not drawn) [compound 54] | no abnormality | No mortal case |  |  | Ester bond hydrolysis to generate carboxyl group [2]: hydrolyzed; Relative liver weight (SD female rats): significant increase
6 | O=C(O)CC(O)c1cccc2nc(CCc3ccccc3)[nH]c12 (stereo not drawn) [compound 7] | no abnormality | No mortal case | no abnormality | no mortal case | 
7 | COC(=O)CC(O)c1cccc2nc(CCc3ccccc3)[nH]c12 (stereo not drawn) [compound 5] |  |  | no abnormality | no mortal case | 
8 | COC(=O)CC(=O)c1cccc2nc(CCc3ccccc3)[nH]c12 [compound 2] |  |  | no abnormality | no mortal case | 
9 | O=C(O)CC(O)c1cccc2nc(CCc3ccccc3)[nH]c12 (stereo not drawn) |  |  |  |  | melting point: 103 to 105.3 °C
10 | CCOC(=O)CC(=O)c1cccc2c1nc(CCc1ccccc1)n2C [compound 10] |  |  | no abnormality | no mortal case | 
